Assay results from patent US8026211B2, “Methods and formulations for increasing intestinal function” (Technion Research & Development Foundation Ltd., priority 2004, dated 2011).

Key:
infants with SBS = assay: Oral insulin supplementation in infants with SBS (clinical evaluation); format: in vivo, human
Description: 1. Infants with less than 30 cm of small intestine (with ileo-cecal valve intact).
2. Infants with less than 40 cm without ileo-cecal valve.
3. Infants and children younger than 10 years of age, with SBS who are […] nutrition dependent and are not expected to be weaned of […] nutrition
Exclusion criteria: Infants in an unstable condition such as sepsis, acute gastroenteritis, pneumonia.
Dosage: 1 unit of insulin (Actrapid, Novonordisk, Denmark)/kg body weight per dose×4/day (every 6 hours) was administered for 28 days. Insulin was administered every six hours. Insulin will be provided as 1 u/ml of 0.45 NaCl orally.
Glucose monitoring: Following the first insulin dose, blood glucose levels were measured, immediately prior to the first and second meal following the first dose of insulin. Measurements were repeated for the first three days following supplementation and then weekly (days 7, 14, 21 and 28)
The clinical evaluation of the patients' conditions included the following parameters:
1. Weight, length, head circumference, MAC (mid arm circumference), TSF (triceps skin fold)—weekly
3. […] intake of calories, carbohydrates, lipids
4. Blood concentration levels of glucose, albumin, ALT, AST, GGT, ALP, total cholesterol, triglycerides (fasting), HDL-cholesterol, insulin (fasting, before insulin administration)
5. Blood amino acid levels
6. Insulin antibodies. 1 ml of serum was removed prior to treatment and at day 28 following treatment. The samples were frozen at −70° C. and sent, on dry ice, to Division of Pediatric Gastroenterology and Nutrition, Meyer Children's Hospital of Haifa, Bat-Galim 31096, Haifa for analysis.

[1] = system: ischemia-reperfusion (IR) injury in rats; assay: Rat ischemia-reperfusion injury: survival and intestinal mucosal parameters (bowel and mucosal weight, DNA, protein); format: in vivo
Experimental: Animals: Animals were obtained from the Rappaport Faculty of Medicine (Technion, Haifa, Israel). Male rats weighing 240-260 g were kept in individual stainless steel cages at constant temperature and humidity, and a 12-hour light-dark cycle was maintained. Rats were fasted 12 hours prior to the experiment with free access to water.
Surgical procedure: Following overnight fasting, the animals were anesthetized with intraperitoneal injection of pentobarbital (IP 40 mg/kg). Using sterile techniques, the abdomen was opened using a midline incision. […] IR underwent laparotomy, mobilization and occlusion of SMA and portal vein by vascular clamp for 30 minutes followed by a reperfusion period of 24 hours. Before closure of the abdomen, the rats were resuscitated with a 3-ml intraperitoneal injection of warm 0.9% saline. For all operations, the abdominal cavity was closed in two layers with a running suture of Dexon “S” Polyglycolic Acid 3/0. Rats were allowed free access to water and food. Twenty-four hours later, the rats were anesthetized with intraperitoneal pentobarbital (75 mg/kg) and were sacrificed by open pneumothorax.
Intestinal Mucosal Parameters: The small intestine from the pylorus to the ileo-cecal valve was removed and divided into two segments: proximal jejunum and distal ileum. The intestine was split on the antimesenteric border, washed with cold saline, dried, and each segment was weighed. The mucosa was scraped from the underlying tissue with a glass slide and weighed. Bowel and mucosal weights were calculated as mg/cm bowel length/100 g body weight. Mucosal samples were homogenized with TRIzol reagent (Rhenium LTD, Jerusalem). DNA and protein were extracted by the method of Chomczynski [BioTechniques. 15:532, 1993] and were expressed as micrograms per centimeter of bowel per 100 g of body weight. In brief, 100 mg tissue was mixed with 1 ml of TRIzol reagent and homogenized for 2 min. Following a three minute incubation period and centrifugation the contents separated into three phases. DNA was isolated from the interphase using ethanol, washed with sodium citrate and was stabilised with 75% ethanol. Protein was isolated from the lower phase using isopropyl alcohol, washed with guanidine hydrochloride, and stabilised with 100% ethanol. Quantitation of DNA was performed with a spectrophotomer. Concentration of the final protein concentration was detected using Bio-Rad Protein Assay technique.
Statistical analysis: All data are given as mean±SD. Differences between experimental groups were tested for statistical significance (p<0.05) using the nonparametric Kruskal-Wallis ANOVA test, followed by the corrected Mann-Whitney test.

[2] = infant with SBS, oral insulin started, within a few days after initiation
[3] = IR-INS rats, 24 h reperfusion, IR 18±3, p<0.05

For insulin, the stool output (infants with SBS; human infants with SBS, oral insulin 1 unit/kg per dose x4/day) was “reduced stool output”, the jaundice (infants with SBS; [2]) was “decrease in jaundice” and the “need for parenteral nutrition” value (infants with SBS; [2]) was “reduced need for parenteral nutrition”. The oral feeds (infants with SBS; [2]) was “increase in oral feeds”, the clinical outcome (infants with SBS; infant with SBS, three months following the addition of insulin) was “discharged from hospital, thriving and on full oral feeds” and the parenteral nutrition status (infants with SBS; infant with SBS, two months following the addition of oral insulin) was “parenteral nutrition was stopped”. The post-operative mortality ([1]; IR rats, insulin in drinking water (2%) 3 days prior to and 24 hours following IR) was “no effect”, the ileal mucosal weight ([1]; IR-INS rats, 24 h reperfusion, IR 5.9±0.6, p<0.05) was 7.3±0.4 mg/cm/100 g and the jejunal mucosal weight ([1]; IR-INS rats, 24 h reperfusion, IR 7.0±0.6, p<0.05) was 8.9±0.6 mg/cm/100 g. The “mucosal protein in ileum” value [1, 3] was 25±2 μg/cm/100 g, the “mucosal protein in jejunum” value [1, 3] was 28±3 μg/cm/100 g and the “jejunal intestinal (bowel) weight” value ([1]; IR-INS rats, 24 h reperfusion, IR 20.1±0.7, p<0.05) was 23±0.8 mg/cm/100 g.
